Data on 8 compounds can be found in patent publication US4841051A, “Phenylpiperazine derivatives” (Nippon Kayaku Kabushiki Kaisha, priority 1985, dated 1989).

Data set [1] concerns the target T1, isolated vas deferens of a rat (Rattus norvegicus, UniProt P43140).
T1 construct: The vas deferens was isolated from SD male rats and cut into strips about 20 mm long; from tissue; host or cells: vas deferens of SD male rats
T1 sequence (P43140 1-466): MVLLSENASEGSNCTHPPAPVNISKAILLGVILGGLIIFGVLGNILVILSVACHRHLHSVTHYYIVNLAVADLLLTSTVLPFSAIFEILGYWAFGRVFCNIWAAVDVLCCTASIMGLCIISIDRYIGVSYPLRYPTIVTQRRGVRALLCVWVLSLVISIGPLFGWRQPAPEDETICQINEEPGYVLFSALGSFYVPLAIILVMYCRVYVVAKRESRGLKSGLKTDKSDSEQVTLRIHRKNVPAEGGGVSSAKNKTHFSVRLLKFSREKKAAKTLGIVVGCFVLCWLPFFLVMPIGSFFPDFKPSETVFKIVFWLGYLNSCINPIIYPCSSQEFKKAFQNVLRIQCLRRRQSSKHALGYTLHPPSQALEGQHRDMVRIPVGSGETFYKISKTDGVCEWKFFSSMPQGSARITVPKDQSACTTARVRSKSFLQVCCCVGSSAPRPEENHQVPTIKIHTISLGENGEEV
Description: Action on isolated vas deferens of a rat (antagonism against noradrenaline). As to conditions: 3 minutes pretreatment, 32° C., read-out: pA2 (converted). Also noted: species or system SD male rat. Here is the method: The vas deferens was isolated from SD male rats and cut into strips about 20 mm long. The both ends of the strip were bounded with two threads respectively. The thread attached to one end of the strips was fixed in a 10-ml organ bath and the thread attached to other end was connected to an isotonic transducer. The bath was filled with Tyrode's solution of 32° C. comprising a solution of 8.0 g of NaCl, 0.2 g of KCl, 0.2 g of CaCl2, 0.1 g of MgCl2, 0.05 g of NaH2 PO4, 1.0 g of NaHCO3 and 1.0 g of glucose in 1 l of deionized water. A gas mixture comprising 95% of oxygen and 5% of carbon dioxide was bubbled into the bath. Resting tension of 0.5 g was loaded. Noradrenaline was treated accumulatively in the bath to obtain a consistent dose-response curve. After the pretreatment of the preparation with a sample compound for 3 minutes, another dose-response curve of noradrenaline was obtained to determine the activities of the compound. The strength of antagonism against noradrenaline was determined from these dose-response curves in terms of pA2 value.

The next data set has as its system SHR rat. Nature of the data set: Hypotensive activity, SHR rat. In kind it is in vivo. Conditions: 3 μg/kg, injected into femoral vein, anesthetized SHR rat. On the procedure: (§1) The experiment was carried out using an SHR or SD male rat under anesthesia. The blood pressure was measured by inserting a polyethylene tube (a product of Clay Adams Co., Ltd.: PE-50) into its carotid arteries and using a pressure transducer (a product of Century Technology Company: CP-01) and continuously recorded on a recorder (a product of Nippon Koden Co., Ltd.). Sample compounds were each injected by a polyethylene tube (a product of Clay Adams Co., Ltd.: PE-10) inserted into the femoral vein of the rat in an amount of 3 μg/kg for an SHR rat or 10 μg/kg for an SD rat to examine the maximum hypotensive effect on systolic pressure.

A short description of data set [2]: Acute toxicity, intraperitoneal. As to conditions: mouse, in vivo, ip, ICR male mice, up-and-down method or van der Welden method. On the procedure: The acute toxicity due to intraperitoneal administration of a sample compound was examined by using ICR male mice (CRJ-ICR: weight of 29.5 to 52.3 g). Each sample compound was administered to from ten to thirty mice. The mice were observed until the symptom got well again. The LD50 values were determined by the up-and-down method or by van der Welden method.

The test system of another data set is SD rat. Nature of the data set: Hypotensive activity, SD rat. It counts as in vivo, SD male rat. As to conditions: 10 μg/kg, injected into femoral vein, anesthetized SD rat. On the procedure: as §1
The test system of the next data set is α1 -receptor. Nature of the data set: α1 -blocking activity (inhibition of blood pressure increase due to phenylephrine). In kind it is in vivo. Conditions: 10 μg/kg, femoral vein; phenylephrine 2 μg/kg i.v.; anesthetized SD male rat. Here is the method:
The blood pressure (a) of an SD male rat of 7 to 8 weeks of age was measured and 2 μg/kg of phenylephrine was administered to the rat by intravenous injection. Then the maximum response of blood pressure (b) was measured. 10 μg/kg of a sample compound was administered to the rats, followed by the intravenous injection of 2 μg/kg of phenylephrine. Then, the maximum response of blood pressure (c) was measured. The depression (d) of blood pressure increased due to phenylephrine was calculated by the following equation: [formula]
The animal was anesthetized by intraperitoneal administration of 40 mg/kg of nembutal and the anesthetic depth was kept by intravenous drip infusion of 15 mg/kg/hr of pentobarbital sodium. The blood pressure was measured by inserting a polyethylene tube (a product of Clay Adams: PE-50) and using a transducer (a product of Century Technology Company: CP-01) and continuously recorded on a pen oscillograph (a product of Nippon Koden Co., Ltd. WI-6416). Each sample compound was injected by a polyethylene tube (a product of Clay Adams Co., Ltd.: PE-10) inserted into the femoral vein.

The structures appear in SMILES notation.

As for `CCOc1ccccc1N1CCN(CCn2cnc3ccccc3c2=O)CC1` [Compound 1, 3-[2-[4-(2-Ethoxyphenyl)-1-piperazinyl]-ethyl]-4(3H)-quinazolone], in data set [1], the Kb is 0.501 nM. Further, in the data set with SHR rat, the “maximum hypotensive effect on systolic pressure, SHR rat” value (shortened to “maximum hypotensive effect … SHR rat”) is “+++ (pressure drop of 21 to 30 mmHg)”. Besides, the LD50 in data set [2] is 400 mg/kg.

`CCOc1ccccc1N1CCN(CCn2c(C)nc3ccccc3c2=O)CC1` [Compound 3]: the Kb in data set [1] is 3.16 nM. Also, in the data set on SHR rat, the “maximum hypotensive effect … SHR rat” value is recorded as “+++ (pressure drop of 21 to 30 mmHg)”. In addition, the 50% lethal dose (LD50) in data set [2] is 119 mg/kg.

As for `CCOc1ccccc1N1CCN(CCCn2c(C)nc3ccccc3c2=O)CC1` [Compound 4], the Kb in data set [1] is 10 nM. The “maximum hypotensive effect … SHR rat” value in the data set with SHR rat is “++ (pressure drop of 11 to 20 mmHg)”. In addition, the LD50 in data set [2] came to 152 mg/kg.

Take `CCOc1ccccc1N1CCN(CCCCn2cnc3ccccc3c2=O)CC1` [Compound 5, 3-{4-[4-(2-Ethoxyphenyl)-1-piperazinyl]butyl}-4(3H)-quinazolone]: the Kb in data set [1] is 0.398 nM. Further, the “maximum hypotensive effect … SHR rat” value with SHR rat is “+++ (pressure drop of 21 to 30 mmHg)”. In the data set with SD rat, the “maximum hypotensive effect on systolic pressure, SD rat” value is on record as 57.5 mmHg. In the data set with α1 -receptor, the “Percentage of inhibition of blood pressure increase” value is 89.6%. The LD50 in data set [2] was 150 mg/kg.

In the case of `CCOc1ccccc1N1CCN(CCCn2c(C)nc3nc(C)cc(C)c3c2=O)CC1` [Compound 6, 2,5,7-Trimethyl-3-[3-[4-(2-ethoxyphenyl)-1-piperazinyl]-propyl]pyrido[2,3-d]pyrimidin-4(3H)-one], in data set [1], the Kb is 2.51 nM. Also, in the data set with SHR rat, the “maximum hypotensive effect … SHR rat” value was “++ (pressure drop of 11 to 20 mmHg)”. Besides, the LD50 in data set [2] amounted to 128 mg/kg.

In the case of `CCOc1ccccc1N1CCN(CCCCn2c(C)nc3nc(C)cc(C)c3c2=O)CC1` [Compound 7], the Kb in data set [1] was 5.01 nM. Also, in the data set on SHR rat, the “maximum hypotensive effect … SHR rat” value is listed as “++ (pressure drop of 11 to 20 mmHg)”. In data set [2], this compound showed a median lethal dose (LD50) of 137 mg/kg.

For the compound `CCOc1ccccc1N1CCN(CCn2c(C)nc3nc(C)cc(C)c3c2=O)CC1` [Compound 8], the Kb in data set [1] is 6.31 nM. Besides, the “maximum hypotensive effect … SHR rat” value in the data set on SHR rat is on record as “++ (pressure drop of 11 to 20 mmHg)”. Besides, the LD50 in data set [2] was determined as 207 mg/kg.

For the compound `CCOc1ccccc1N1CCN(CCCCn2c(=O)n(-c3ccccc3)c(=O)c3c(C)cc(C)nc32)CC1` [Compound 10, 3-Phenyl-5,7-dimethyl-1-[4-[4-(2-ethoxyphenyl)-1-piperazinyl]butyl]pyrido[2,3-d]pyrimidine-2,4(1H,3H)-dione], in data set [1], the Kb was 7.94 nM. Further, in the data set on SHR rat, the “maximum hypotensive effect … SHR rat” value is “++ (pressure drop of 11 to 20 mmHg)”. Besides, the LD50 in data set [2] came to 328 mg/kg.
